Laboratory results reported in ChEMBL document CHEMBL1144247, “Fluorescent polycyclic ligands for nitric oxide synthase (NOS) inhibition” (Bioorg Med Chem, 2008).

Test: Inhibition of NOS in Sprague-Dawley rat brain by oxyhaemoglobin assay
With `N#Cc1c2ccccc2cn1C12CC3CC(CC(C3)C1)C2` the IC50 was 291 nM and the pIC50 was 4.52. With `O=C(NC12CC3CC(CC(C3)C1)C2)c1n[nH]c2ccccc12` the IC50 was 2530 nM and the pIC50 was 3.52. `CNc1ccccc1C(=O)NC12CC3CC(CC(C3)C1)C2` gave a pIC50 of 2.53. In the case of `CNc1ccccc1C(=O)OC12C3C4CC5C6C4C1C6C1(OCCCN12)C53` (centres undefined), the pIC50 is reported as 2.93. Compound `O=C(O)c1n[nH]c2ccccc12` has an IC50 of 9650 nM and a pIC50 of 3.28. Work on `N#CSc1c2ccccc2cn1C12CC3CC(CC(C3)C1)C2` yielded a pIC50 of 3.88. For `O=[N+]([O-])c1c2ccccc2cn1C12CC3CC(CC(C3)C1)C2`, the pIC50 was 3.74. For `O=C(OC12C3C4CC5C6C4C1C6C1(OCCCN12)C53)c1n[nH]c2ccccc12` (centres undefined), the IC50 was 350 nM and the pIC50 was 4.22. With `N=C(N)NN` [PIMAGEDINE] the IC50 was 19400 nM and the pIC50 was 2.72.
